Experiment [1] concerns the target T1, Angiotensin II receptor (AT-1) type-1 (Rattus norvegicus, UniProt P29089+P25095).
T1 sequence (P29089 whole entry): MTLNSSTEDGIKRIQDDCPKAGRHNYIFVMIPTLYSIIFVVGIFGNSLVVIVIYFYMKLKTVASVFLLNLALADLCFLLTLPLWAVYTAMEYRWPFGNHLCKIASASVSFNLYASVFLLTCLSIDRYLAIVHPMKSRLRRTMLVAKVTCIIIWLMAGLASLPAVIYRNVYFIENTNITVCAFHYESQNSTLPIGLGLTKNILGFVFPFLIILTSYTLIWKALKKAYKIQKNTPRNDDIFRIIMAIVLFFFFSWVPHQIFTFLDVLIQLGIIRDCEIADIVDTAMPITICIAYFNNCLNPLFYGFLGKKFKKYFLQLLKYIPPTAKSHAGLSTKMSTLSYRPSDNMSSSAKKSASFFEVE
T1 sequence (P25095 whole entry): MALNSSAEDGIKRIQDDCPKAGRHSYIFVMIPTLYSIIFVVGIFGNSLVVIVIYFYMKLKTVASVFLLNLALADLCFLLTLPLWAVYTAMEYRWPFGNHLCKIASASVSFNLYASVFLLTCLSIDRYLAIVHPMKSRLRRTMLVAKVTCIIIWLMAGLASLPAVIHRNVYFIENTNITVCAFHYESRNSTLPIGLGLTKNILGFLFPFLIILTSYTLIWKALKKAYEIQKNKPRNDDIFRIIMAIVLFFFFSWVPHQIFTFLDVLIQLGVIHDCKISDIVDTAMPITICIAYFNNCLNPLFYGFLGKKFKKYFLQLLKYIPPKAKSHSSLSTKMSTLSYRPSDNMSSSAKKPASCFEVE
As to the kind of experiment: Inhibitory concentration was evaluated by measuring displacement of [3H]AII from rat liver Angiotensin II receptor, type 1. (Loss of bound radioactivity is the signal in a displacement assay; it reports binding, not function.)

Experiment [2] deals with Angiotensin II receptor (Rattus norvegicus) (UniProt P29089+P25095+P35351). As to the kind of experiment: In vivo inhibitory percentage of pressor response induced by exogenous submaximal dose of angiotensin-II (3 ug/kg) administered iv to pithed rats. The experiment is classed as functional, organism-based.
The test system of a further experiment is Rattus norvegicus. As to the kind of experiment: In vivo inhibitory percentage of pressor response induced by exogenous submaximal dose of angiotensin -II […] administered iv to pithed rats. It counts as functional.

The structures appear in SMILES notation.

Chain of Angiotensin II receptor (Rattus norvegicus) (P35351 whole entry, looked up, one chain of several): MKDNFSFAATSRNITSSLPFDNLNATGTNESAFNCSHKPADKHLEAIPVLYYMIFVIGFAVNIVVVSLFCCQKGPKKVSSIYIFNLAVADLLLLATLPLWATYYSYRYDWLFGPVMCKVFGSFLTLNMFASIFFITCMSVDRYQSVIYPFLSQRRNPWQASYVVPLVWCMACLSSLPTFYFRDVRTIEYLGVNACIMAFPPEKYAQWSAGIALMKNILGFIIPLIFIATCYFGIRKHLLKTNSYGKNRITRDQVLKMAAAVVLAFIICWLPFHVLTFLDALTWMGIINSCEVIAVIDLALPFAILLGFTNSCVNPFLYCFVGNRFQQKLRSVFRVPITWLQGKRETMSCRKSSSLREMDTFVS

In experiment [1], `CCc1nc2c(C)cc(C)nc2n1Cc1ccc(C(c2ccccc2)C(C(=O)O)C(=O)O)cc1` (stereo unspecified) returned a half-maximal inhibitory concentration (IC50) of 120 nM. Further, in experiment [2], the inhibition worked out at 79.9%. In the case of `CCc1nc2c(C)cc(C)nc2n1Cc1ccc(/C(=C\C(=O)O)c2ccccc2)cc1` (stereo in doubt; 12A) [listing 1 of 2 here], the inhibition in experiment [2] was 30.4%. Regarding `CCc1nc2c(C)cc(C)nc2n1Cc1ccc(C(CC(=O)O)c2ccccc2F)cc1` (stereo unspecified), in experiment [1], the IC50 turned out to be 130 nM. The molecule also gave an inhibition in experiment [2] of 68.7%. With `CCc1nc2c(C)cc(C)nc2n1Cc1ccc(C(c2ccccc2)C(C(=O)O)C(F)(F)F)cc1` (stereo unspecified), the inhibition in experiment [2] is 32.3%. Molecule `CCc1nc2c(C)cc(C)nc2n1Cc1ccc(C(CC(=O)NS(=O)(=O)c2ccccc2)c2ccccc2)cc1` (stereo unspecified) had an IC50 in experiment [1] of 360 nM. In experiment [2], the inhibition was 48.2%. In the same order, the values of `CCc1nc2c(C)cc(C)nc2n1Cc1ccc(C(Cc2nnn[nH]2)c2ccccc2)cc1` (stereo unspecified) are 120 nM and 55.4%.

As for `CCc1nc2c(C)cc(C)nc2n1Cc1ccc(C(CC(=O)O)c2ccc(OC)cc2)cc1` (stereo unspecified), the IC50 in experiment [1] is 3700 nM. In experiment [1], `CCc1nc2c(C)cc(C)nc2n1Cc1ccc([C@H](c2ccccc2)[C@H](C)C(=O)O)cc1` (stereo in doubt; (-36)g) yielded a concentration for half-maximal inhibition (IC50) of 76 nM. Further, in the experiment on Rattus norvegicus, the Inhibition was determined as 80.3%.

With `CCc1nc2c(C)cc(C)nc2n1Cc1ccc([C@H](c2ccccc2)[C@H](C)C(=O)O)cc1` (stereo in doubt; (+36)g), the IC50 in experiment [1] is 71 nM. In the experiment on Rattus norvegicus, this molecule returned an Inhibition of 80.9%. Molecule `CCc1nc2c(C)cc(C)nc2n1Cc1ccc(/C(=C\c2nn[nH]n2)c2ccccc2)cc1` (stereo in doubt; 22a) [listing 1 of 2 here] had an IC50 in experiment [1] of 92 nM. On the same count and under the same terms, the same measure for `CCc1nc2c(C)cc(C)nc2n1Cc1ccc(C(CCNS(=O)(=O)C(F)(F)F)c2ccccc2)cc1` (stereo unspecified): greater than 10000 nM. On to `CCc1nc2c(C)cc(C)nc2n1Cc1ccc([C@H](c2ccccc2)[C@@H](C)C(=O)O)o1`, for which the IC50 in experiment [1] amounted to 5600 nM. In addition, in the experiment with Rattus norvegicus, the Inhibition is given as less than 10%. Molecule `CCc1nc2c(C)cc(C)nc2n1Cc1ccc(C(c2ccc(C)cc2)C(C(=O)O)C(=O)O)cc1` (stereo unspecified) registered an IC50 in experiment [1] of 1100 nM. Also, the inhibition in experiment [2] was found to be 17.1%. Turning to `CCc1nc2c(C)cc(C)nc2n1Cc1ccc([C@H](c2ccccc2)[C@@H](C)C(=O)O)cc1` (stereo in doubt; (-)37g), in experiment [1], the half-inhibitory concentration (IC50) came to 180 nM. Further, the Inhibition with Rattus norvegicus amounted to 22.1%. As to `CCc1nc2c(C)cc(C)nc2n1Cc1ccc(C(CC(=O)O)c2ccc(F)cc2F)cc1` (stereo unspecified), the IC50 in experiment [1] was determined as 250 nM. In addition, in experiment [2], the inhibition worked out at 40.4%.

Molecule `CCc1nc2c(C)cc(C)nc2n1Cc1ccc(C(c2ccccc2)C(CC)C(=O)O)cc1` (stereo unspecified) came in with an IC50 in experiment [1] of 78 nM. Moreover, the inhibition in experiment [2] turned out to be 76.2%. Consider `CCc1nc2c(C)cc(C)nc2n1Cc1ccc(C(CC(=O)O)c2ccc(-c3ccncc3)cc2)cc1` (stereo unspecified), for which the IC50 in experiment [1] was 5300 nM.

For `CCc1nc2c(C)cc(C)nc2n1Cc1ccc(C(CC)C(C)C(=O)O)cc1` (stereo unspecified), in experiment [1], the 50% inhibitory concentration (IC50) is 330 nM. In experiment [2], this molecule displayed an inhibition of 45.7%.

Turning to `CCc1nc2c(C)cc(C)nc2n1Cc1ccc(C(c2ccccc2)C(Cc2ccccc2)C(=O)O)cc1` (stereo unspecified), in experiment [1], the concentration for half-maximal inhibition (IC50) is 200 nM. This molecule registered an inhibition in experiment [2] of 31.5%. Take `CCc1nc2c(C)cc(C)nc2n1Cc1ccc(/C(=C\c2nn[nH]n2)c2ccccc2)cc1` (stereo in doubt; 22a) [listing 2 of 2 here]: in experiment [2], the inhibition stood at 41%.

Turning to `CCc1nc2c(C)cc(C)nc2n1Cc1ccc(C(c2ccccc2)C(C)C(=O)O)cc1` (stereo unspecified), the IC50 in experiment [1] was found to be 71 nM. In experiment [2], this molecule gave an inhibition of 73.7%. With `CCc1nc2c(C)cc(C)nc2n1Cc1ccc(/C(=C\C(=O)O)c2ccccc2)cc1` (stereo in doubt; 12B) [listing 1 of 2 here], in experiment [2], the inhibition was 22.9%. Molecule `CCc1nc2c(C)cc(C)nc2n1Cc1ccc(C(CC(=O)O)c2ccccc2)cc1` (stereo unspecified) displayed an IC50 in experiment [1] of 110 nM. The molecule also came in with an inhibition in experiment [2] of 68.5%. Turning to `CCc1nc2c(C)cc(C)nc2n1Cc1ccc(C(C(C)C)C(C)C(=O)O)cc1` (stereo unspecified), in experiment [1], the IC50 turned out to be 600 nM. Also, the inhibition in experiment [2] is 30.4%. In experiment [2], `CCc1nc2c(C)cc(C)nc2n1Cc1ccc(/C(=C(/Br)c2nn[nH]n2)c2ccccc2)cc1` (stereo in doubt; 22d) [listing 1 of 2 here] yielded an inhibition of 22.8%. With `CCc1nc2c(C)cc(C)nc2n1Cc1ccc(/C(=C\c2nn[nH]n2)c2ccccc2)cc1` (stereo in doubt; 22b) [listing 1 of 2 here], in experiment [1], the IC50 is 130 nM. In experiment [1], `CCc1nc2c(C)cc(C)nc2n1Cc1ccc(/C(=C\C(=O)O)c2ccccc2)cc1` (stereo in doubt; 12B) [listing 2 of 2 here] showed a concentration for half-maximal inhibition (IC50) of 170 nM. `CCc1nc2c(C)cc(C)nc2n1Cc1ccc(C(C)C(C)C(=O)O)cc1` (stereo unspecified): the inhibition in experiment [2] was 46%. Molecule `CCc1nc2c(C)cc(C)nc2n1Cc1ccc(C(Cc2ccccc2)C(C(=O)O)C(=O)O)cc1` (stereo unspecified) came in with an IC50 in experiment [1] greater than 10000 nM. In experiment [2], this molecule returned an inhibition of less than 10%. Turning to `CCc1nc2c(C)cc(C)nc2n1Cc1ccc(/C(=C(/Br)c2nn[nH]n2)c2ccccc2)cc1` (stereo in doubt; 22c) [listing 1 of 2 here], the inhibition in experiment [2] was found to be 39.9%. With `CCc1nc2c(C)cc(C)nc2n1Cc1ccc(C(=C(C(=O)O)C(=O)O)c2ccccc2)cc1`, the IC50 in experiment [1] was found to be 320 nM. In experiment [2], this molecule registered an inhibition of 69.2%. Turning to `CCc1nc2c(C)cc(C)nc2n1Cc1ccc(/C(=C(/Br)c2nn[nH]n2)c2ccccc2)cc1` (stereo in doubt; 22d) [listing 2 of 2 here], in experiment [1], the IC50 worked out at 290 nM.

On to `CCc1nc2c(C)cc(C)nc2n1Cc1ccc(C(CC(=O)NS(C)(=O)=O)c2ccccc2)cc1` (stereo unspecified), for which the IC50 in experiment [1] came out at 94 nM. For the same molecule, in experiment [2], the inhibition is 72.7%. `CCc1nc2c(C)cc(C)nc2n1Cc1ccc(/C(=C\C(=O)O)c2ccccc2)cc1` (stereo in doubt; 12A) [listing 2 of 2 here] returned a 50% inhibitory concentration (IC50) in experiment [1] of 120 nM. With `CCC[C@@H](C(=O)O)[C@@H](c1ccccc1)c1ccc(Cn2c(CC)nc3c(C)cc(C)nc32)cc1`, in experiment [1], the IC50 came out at 590 nM. For the same molecule, the Inhibition with Rattus norvegicus came out at 27.8%. In turn, `CCc1nc2c(C)cc(C)nc2n1Cc1ccc(C(c2ccccc2)C(Br)C(=O)O)cc1` (stereo unspecified) gave a half-inhibitory concentration (IC50) in experiment [1] of 170 nM. In experiment [2], this molecule gave an inhibition of 47.1%. `CCc1nc2c(C)cc(C)nc2n1Cc1ccc(/C(=C\c2nn[nH]n2)c2ccccc2)cc1` (stereo in doubt; 22b) [listing 2 of 2 here] showed an inhibition in experiment [2] of less than 10%. In experiment [1], `CCc1nc2c(C)cc(C)nc2n1Cc1ccc(/C(=C(/Br)c2nn[nH]n2)c2ccccc2)cc1` (stereo in doubt; 22c) [listing 2 of 2 here] yielded a 50% inhibitory concentration (IC50) of 44 nM. As for `CCc1nc2c(C)cc(C)nc2n1Cc1ccc([C@H](c2ccccc2)[C@@H](CC)C(=O)O)cc1`, the 50% inhibitory concentration (IC50) in experiment [1] was found to be 450 nM. Further, in the experiment with Rattus norvegicus, the Inhibition was 44.9%. In turn, `CCc1nc2c(C)cc(C)nc2n1Cc1ccc(C(CC(=O)O)c2ccccc2Cl)cc1` (stereo unspecified) came in with an IC50 in experiment [1] of 200 nM. This molecule displayed an inhibition in experiment [2] of 69.1%. The like results for `CCc1nc2c(C)cc(C)nc2n1Cc1ccc(C(c2ccccc2)C(C)(C)C(=O)O)cc1` (stereo unspecified) were, in that order, 240 nM and 50.7%. The like results for `CCc1nc2c(C)cc(C)nc2n1Cc1ccc(C(c2cccc(C)c2)C(C(=O)O)C(=O)O)cc1` (stereo unspecified) were, in that order, 450 nM and 61.7%. Molecule `CCc1nc2c(C)cc(C)nc2n1Cc1ccc(C(c2ccccc2C)C(C(=O)O)C(=O)O)cc1` (stereo unspecified) showed an IC50 in experiment [1] of 210 nM. The molecule further yielded an inhibition in experiment [2] of 62%. The like results for `CCc1nc2c(C)cc(C)nc2n1Cc1ccc(C(c2ccccc2)C(C#N)C(=O)O)cc1` (stereo unspecified) were, in that order, 160 nM and 68.7%.

What is called IC50 is the point on the concentration scale where inhibition reaches its midpoint. A high value points to lower potency. The inhibition is the share of the control response that was lost under treatment. For orientation: Inhibition means the drop in the measured response relative to a control, in per cent.

The values are drawn from ChEMBL document CHEMBL1129327, “Diphenylpropionic acids as new AT1 selective angiotensin II antagonists” (J Med Chem, 1996).
